Counter-ions that a name gives are not always drawn. Like-named read-outs stand apart in the source and are kept apart here.
What was measured:
Na—H exchange = target: T1, Na—H exchange (Rattus norvegicus, UniProt P26431); test: Rat platelet swelling in sodium propionate solution (light transmittance of PRP), inhibition of Na—H exchange; type: cell-based; details: for inhibition at 0.1 µM: 1 min, read-out: Inhibition Rate (%) [10^−7 M]
T1 construct: The blood was centrifuged at 3000 rpm for 5 seconds to obtain platelet rich plasma (PRP); from tissue; host or cells: platelets in platelet rich plasma from abdominal aortic blood of male Wistar rats
Protocol: Male Wistar rats (350-450 g) were anesthetized with sodium pentobarbital (50 mg/kg, i.p.). Using a disposable syringe pre-filled with 1.5 ml of 3.8% citric acid solution, 8.5 ml of blood was collected from the abdominal aorta. The blood was centrifuged at 3000 rpm for 5 seconds to obtain platelet rich plasma (PRP). The number of platelets in the PRP was counted by an automatic hemocytometer (Sysmex 2500, TOA Medical Electronics). The PRP was diluted with physiological saline to make the concentration of 40×10^4 platelets per 1 μl. A platelet aggregometer (Hematoracer, Niko Bioscience) was used for measurement of the platelet swelling. 200 μl of the PRP was poured into a cuvette and 600 μl of sodium propionate solution (Na propionate 135, glucose 10, Hepes 20, CaCl2 1, MgCl2 1; Units: mM; pH6.7) was added while stirring at 37° C. The change in the light transmittance of PRP which was an indicator of the platelet swelling was recorded on a plotter. The test compound was added 3 minutes before addition of the sodium propionate solution. The test compounds were dissolved in dimethylsulfoxide (DMSO).

[1] = test compound 10^−7 M, rat platelet rich plasma, value 1 minute after sodium propionate solution, 100% = difference between 1% DMSO and HOE-642 (10^−5M)

T1 sequence (P26431 whole entry): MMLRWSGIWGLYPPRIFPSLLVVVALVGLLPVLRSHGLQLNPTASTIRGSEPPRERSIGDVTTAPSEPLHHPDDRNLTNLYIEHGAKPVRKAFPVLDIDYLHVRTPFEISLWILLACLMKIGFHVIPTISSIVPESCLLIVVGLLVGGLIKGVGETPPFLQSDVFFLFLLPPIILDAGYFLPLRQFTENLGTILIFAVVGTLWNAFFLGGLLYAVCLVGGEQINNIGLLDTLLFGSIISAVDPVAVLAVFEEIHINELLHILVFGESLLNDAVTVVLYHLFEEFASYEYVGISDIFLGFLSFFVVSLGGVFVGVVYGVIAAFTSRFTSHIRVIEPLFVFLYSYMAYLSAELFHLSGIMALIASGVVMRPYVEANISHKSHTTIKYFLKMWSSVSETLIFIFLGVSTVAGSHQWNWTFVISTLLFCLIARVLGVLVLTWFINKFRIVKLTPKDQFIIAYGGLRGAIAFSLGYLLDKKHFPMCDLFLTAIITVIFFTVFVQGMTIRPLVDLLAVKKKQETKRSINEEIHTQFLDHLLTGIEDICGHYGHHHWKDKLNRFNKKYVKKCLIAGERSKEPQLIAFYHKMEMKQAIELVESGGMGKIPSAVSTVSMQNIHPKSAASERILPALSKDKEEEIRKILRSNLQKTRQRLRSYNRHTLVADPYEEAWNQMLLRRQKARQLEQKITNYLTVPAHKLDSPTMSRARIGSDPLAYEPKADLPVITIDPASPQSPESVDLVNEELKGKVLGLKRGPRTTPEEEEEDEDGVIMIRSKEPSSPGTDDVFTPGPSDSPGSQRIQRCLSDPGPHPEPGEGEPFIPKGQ

Structure (SMILES)	melting point	other results
Cc1ccnc2c1C(=NNC(=N)NO)CC(c1ccsc1)C2.Cl (centres unmarked)	201 to 202 °C (dec.)	–
CS(=O)(=O)n1ccc2c1CC(c1ccccc1)CC2=NNC(=N)N.Cl (centres unmarked)	270 °C (dec.)	–
Cc1ccnc2c1C(=NNC(=N)N)CC(c1cc(Cl)ccc1Cl)C2.Cl (centres unmarked)	≥ 300 °C	–
Cc1ccnc2c1C(=NNC(=N)NO)CC(c1cc(Br)sc1Br)C2.Cl (centres unmarked)	194 to 196 °C (dec.)	–
Cc1cn(S(C)(=O)=O)c2c1C(=NNC(=N)N)CC(c1ccccc1)C2.Cl (centres unmarked)	260 °C (dec.)	–
Cl.N=C(N)NN=C1CC(c2ccccc2Cl)Cc2[nH]nc(Nc3ccccc3)c21 (centres unmarked)	208 to 210 °C	–
Cl.N=C(N)NN=C1CC(c2ccccc2Cl)Cc2[nH]nc(-c3ccccc3)c21 (centres unmarked)	185 °C (dec.)	–
Cc1c2c(nn1CCc1ccccc1)CC(c1ccccc1Cl)CC2=NNC(=N)N.Cl (centres unmarked)	185 °C (dec.)	–
Cc1nn(CCCc2ccccc2)c2c1C(=NNC(=N)N)CC(c1ccccc1Cl)C2.Cl (centres unmarked)	210 °C (dec.)	–
Cc1cnnc2c1C(=NNC(=N)NO)CC(c1cc(Cl)sc1Cl)C2.Cl (centres unmarked)	176 to 178 °C	–
Cc1cc[n+]([O-])c2c1C(=NNC(=N)N)CC(c1cc(Cl)sc1Cl)C2.Cl (centres unmarked)	≥ 300 °C	–
Cc1c[n+]([O-])nc2c1C(=NNC(=N)N)CC(c1ccccc1Cl)C2.Cl (centres unmarked)	249 to 250 °C	–
Cc1ccnc2c1C(=NNC(=N)N)CC(c1cc(F)ccc1O)C2.Cl (centres unmarked)	264 to 266 °C	–
Cc1cc(Cl)c(C2CC(=NNC(=N)N)c3c(C)ccnc3C2)s1.Cl (centres unmarked)	198 to 200 °C	–
CCc1c[nH]c2c1C(=NNC(=N)N)CC(c1ccccc1)C2.Cl (centres unmarked)	158 to 160 °C	–
Cc1coc2c1/C(=N/NC(=N)N)CC(c1ccc(F)cc1)C2.Cl (centres unmarked)	277 °C (dec.)	–
COc1ccccc1C1C/C(=N\NC(=N)N)c2c(C)coc2C1.Cl (centres unmarked)	279 °C (dec.)	–
Cl.N=C(N)N/N=C1\CC(c2ccccc2)Cc2occ(C(F)(F)F)c21 (centres unmarked)	291 °C (dec.)	–
Cc1ccccc1C1CC(=NNC(=N)N)c2c(C(F)(F)F)coc2C1.Cl (centres unmarked)	247 °C (dec.)	–
Cc1ccc(C)c(C2CC(=NNC(=N)N)c3c(C)ccnc3C2)c1.Cl (centres unmarked)	260 to 262 °C	–
Cc1ccnc2c1C(=NNC(=N)N)CC(c1c(Cl)cccc1Cl)C2.Cl (centres unmarked)	≥ 300 °C	–
Cl.Cn1ccc2c1CC(c1ccccc1)CC2=NNC(=N)N (centres unmarked)	205 °C (dec.)	–
Cc1ccc(C2CC(=NNC(=N)N)c3c(C)ccnc3C2)s1.Cl (centres unmarked)	271 to 273 °C	–
Cc1ccnc2c1C(=NNC(=N)N)CC(c1ccccn1)C2.Cl (centres unmarked)	260 °C (dec.)	–
Cc1ccnc2c1C(=NNC(=N)N)CC(c1ccc(F)cc1)C2.Cl (centres unmarked)	259 °C (dec.)	–
Cc1cc(C)c2c(n1)CC(c1ccccc1F)CC2=NNC(=N)N.Cl (centres unmarked)	232 °C (dec.)	–

Structure (SMILES)	melting point	other results
Cc1ccnc2c1C(=NNC(=N)NO)CC(c1c(Cl)cccc1Cl)C2.Cl (centres unmarked)	193 to 195 °C (dec.)	–
CS(=O)(=O)O.Cc1ccnc2c1C(=NNC(=N)N)CC(c1cc(Cl)sc1Cl)C2.O (centres unmarked) (hydrate or solvate)	239 to 241 °C	–
Cc1ccnc2c1C(=NNC(=N)N)CC(c1cc(Cl)sc1Cl)C2 (racemic) [Compound 108, (±)-7-(2,5-dichlorothiophen-3-yl)-5-guanidinoimino-4-methyl-5,6,7,8-tetrahydroquinoline]	250 to 251 °C	–
CS(=O)(=O)O.Cc1ccnc2c1C(=NNC(=N)N)CC(c1ccccc1Cl)C2 (single isomer, unassigned; (-)) [Compound 64, (−)-7-(2-chlorophenyl)-5-guanidinoimino-4-methyl-5,6,7,8-tetrahydroquinoline methanesulfonate]	194 to 195 °C	inhibition at 0.1 µM (Na—H exchange; [1]): 86%
Cc1ccnc2c1C(=NNC(=N)N)CC(c1cc(Cl)sc1Cl)C2 (single isomer, unassigned; (-)) [Compound 109, (−)-7-(2,5-dichlorothiophen-3-yl)-5-guanidinoimino-4-methyl-5,6,7,8-tetrahydroquinoline hydrochloride]	–	inhibition at 0.1 µM (Na—H exchange): 91%
Cc1ccnc2c1C(=NNC(=N)N)CC(c1cc(Cl)sc1Cl)C2 (single isomer, unassigned; (-)) [Compound 112, (−)-7-(2,5-dichlorothiophen-3-yl)-5-guanidinoimino-4-methyl-5,6,7,8-tetrahydroquinoline]	129 to 133 °C	–
CS(=O)(=O)O.Cc1ccnc2c1C(=NNC(=N)N)CC(c1cc(Cl)sc1Cl)C2 (single isomer, unassigned; (-)) [Compound 113, (−)-7-(2,5-dichlorothiophen-3-yl)-5-guanidinoimino-4-methyl-5,6,7,8-tetrahydroquinoline methanesulfonate]	229 to 231 °C	inhibition at 0.1 µM (Na—H exchange; [1]): 100%
Cc1ccccc1C1CC(=NNC(=N)N)c2c(C)c[nH]c2C1.Cl (centres unmarked) [Compound 6, 4-guanidinoimino-3-methyl-6-(2-methylphenyl)-4,5,6,7-tetrahydroindole hydrochloride]	187 °C (dec.)	inhibition at 0.1 µM (Na—H exchange; [1]): 86%
Cc1n[nH]c2c1C(=NNC(=N)N)CC(c1ccccc1Cl)C2 (centres unmarked) [Compound 21, 4-guanidinoimino-6-(2-chlorophenyl)-3-methyl-4,5,6,7-tetrahydroindazole hydrochloride]	–	inhibition at 0.1 µM (Na—H exchange; [1]): 72%
CCc1n[nH]c2c1C(=NNC(=N)N)CC(c1ccccc1Cl)C2.Cl (centres unmarked) [Compound 27, 6-(2-chlorophenyl)-3-ethyl-4-guanidinoimino-4,5,6,7-tetrahydroindazole hydrochloride]	196 to 200 °C	inhibition at 0.1 µM (Na—H exchange; [1]): 76%
Cc1coc2c1C(=NNC(=N)N)CC(c1cccs1)C2.Cl (centres unmarked) [Compound 48, 4-guanidinoimino-3-methyl-6-(2-thienyl)-4,5,6,7-tetrahydrobenzofuran hydrochloride]	285 °C (dec.)	inhibition at 0.1 µM (Na—H exchange; [1]): 70%
Cc1ccnc2c1C(=NNC(=N)N)CC(c1ccccc1F)C2 (centres unmarked) [Compound 59, 7-(2-fluorophenyl)-5-guanidinoimino-4-methyl-5,6,7,8-tetrahydroquinoline hydrochloride]	–	inhibition at 0.1 µM (Na—H exchange; [1]): 72%
Cc1ccnc2c1C(=NNC(=N)N)CC(c1ccccc1Cl)C2.Cl (centres unmarked) [Compound 61, 7-(2-chlorophenyl)-5-guanidinoimino-4-methyl-5,6,7,8-tetrahydroquinoline hydrochloride]	204 °C (dec.)	Inhibition Rate (%) [10^−7 M] (Na—H exchange; [1]): 78%
CS(=O)(=O)O.Cc1ccnc2c1C(=NNC(=N)N)CC(c1ccccc1Cl)C2 (centres unmarked) [Compound 65]	194 to 196 °C	–
Cc1ccnc2c1C(=NNC(=N)N)CC(c1ccccc1O)C2.Cl (centres unmarked) [Compound 68, 5-guanidinoimino-7-(2-hydroxyphenyl)-4-methyl-5,6,7,8-tetrahydroquinoline hydrochloride]	161 °C (dec.)	inhibition at 0.1 µM (Na—H exchange; [1]): 70%
Cc1ccnc2c1C(=NNC(=N)N)CC(c1cccs1)C2.Cl (centres unmarked) [Compound 70, 5-guanidinoimino-4-methyl-7-(2-thienyl)-5,6,7,8-tetrahydroquinoline hydrochloride]	225 °C (dec.)	inhibition at 0.1 µM (Na—H exchange; [1]): 81%
Cc1ccsc1C1CC(=NNC(=N)N)c2c(C)ccnc2C1.Cl (centres unmarked) [Compound 73, 5-guanidinoimino-4-methyl-7-(3-methyl-2-thienyl)-5,6,7,8-tetrahydroquinoline hydrochloride]	184 to 187 °C	inhibition at 0.1 µM (Na—H exchange; [1]): 76%
Cc1ccnc2c1C(=NNC(=N)N)CC(c1sccc1Cl)C2.Cl (centres unmarked) [Compound 74, 7-(3-chloro-2-thienyl)-5-guanidinoimino-4-methyl-5,6,7,8-tetrahydroquinoline hydrochloride]	203 °C (dec.)	inhibition at 0.1 µM (Na—H exchange; [1]): 98%
COc1ccnc2c1C(=NNC(=N)N)CC(c1ccccc1Cl)C2.CS(=O)(=O)O (centres unmarked) [Compound 79, 7-(2-chlorophenyl)-5-guanidinoimino-4-methoxy-5,6,7,8-tetrahydroquinoline methanesulfonate]	158 to 159 °C	inhibition at 0.1 µM (Na—H exchange; [1]): 77%
CCOc1ccnc2c1C(=NNC(=N)N)CC(c1ccccc1Cl)C2 (centres unmarked) [Compound 80, 7-(2-chlorophenyl)-4-ethoxy-5-guanidinoimino-5,6,7,8-tetrahydroquinoline hydrochloride]	–	inhibition at 0.1 µM (Na—H exchange; [1]): 75%
CS(=O)(=O)O.Cc1ccnc2c1C(=NNC(=N)N)CC(c1cc(Cl)sc1Cl)C2 (centres unmarked) [Compound 111]	225 to 229 °C	–
CCc1cnnc2c1C(=NNC(=N)N)CC(c1cc(Cl)sc1Cl)C2 (centres unmarked) [Compound 134, 7-(2,5-dichlorothiophen-3-yl)-4-ethyl-5-guanidinoimino-5,6,7,8-tetrahydrocinnoline methanesulfonate]	–	inhibition at 0.1 µM (Na—H exchange; [1]): 83%
N=C(N)NN=C1CC(c2cc(Cl)sc2Cl)Cc2nncc(C(F)(F)F)c21 (centres unmarked) [Compound 135, 7-(2,5-dichlorothiophen-3-yl)-5-guanidinoimino-4-trifluoromethyl-5,6,7,8-tetrahydrocinnoline]	265 to 266 °C (dec.)	–
CS(=O)(=O)O.Cc1ccnc2c1C(=NNC(=N)N)CC(c1sc(Cl)cc1Cl)C2 (centres unmarked) [Compound 143]	168 to 172 °C	–
CS(=O)(=O)O.Cc1ccnc2c1C(=NNC(=N)N)CC(c1sc(Cl)cc1Cl)C2 (centres unmarked) [Compound 144]	172 to 176 °C	–
